In this series the test system is CCRIS mutagenicity, Ames/micronucleus/aberration tests. Briefly: CCRIS mutagenicity studies.
The mark [1] stands for this setting: Test System: AMES SALMONELLA TYPHIMURIUM, Strain/Indicator: TA98, Metabolic Activation: NONE, Method: PREINCUBATION
The mark [2] stands for this setting: Test System: AMES SALMONELLA TYPHIMURIUM, Strain/Indicator: TA100, Metabolic Activation: NONE, Method: PREINCUBATION
Setting [3] is: Test System: AMES SALMONELLA TYPHIMURIUM, Strain/Indicator: TA98, Metabolic Activation: NONE, Method: STANDARD PLATE.
Setting [4] is: Test System: AMES SALMONELLA TYPHIMURIUM, Strain/Indicator: TA100, Metabolic Activation: NONE, Method: STANDARD PLATE.

SMILES strings stand for the structures. Active and inactive are the calls of the source. No rule for the calls is given here.

Regarding `CCN(CC)c1ccc(/C=C/C2=[N+](C)c3ccccc3C2(C)C)cc1`, the mutagenic call was “inactive; negative” (Test System: Ames Salmonella typhimurium, Strain/Indicator: TA98, Metabolic Activation: None, Method: Preincubation); “inactive; negative” (Test System: Ames Salmonella typhimurium, Strain/Indicator: TA98, Metabolic Activation: Rat, Liver, S-9, Aroclor 1254, Method: Preincubation); “inactive; negative” (Test System: Ames Salmonella typhimurium, Strain/Indicator: TA100, Metabolic Activation: None, Method: Preincubation); “inactive; negative” (Test System: Ames Salmonella typhimurium, Strain/Indicator: TA100, Metabolic Activation: Rat, Liver, S-9, Aroclor 1254, Method: Preincubation); “inactive; negative” (Test System: Ames Salmonella typhimurium, Strain/Indicator: TA102, Metabolic Activation: None, Method: Preincubation); “inactive; negative” (Test System: Ames Salmonella typhimurium, Strain/Indicator: TA102, Metabolic Activation: Rat, Liver, S-9, Aroclor 1254, Method: Preincubation). In addition, the mutagenic call was “inactive; negative” (Test System: Ames Salmonella typhimurium, Strain/Indicator: TA1535, Metabolic Activation: None, Method: Preincubation) and “inactive; negative” (Test System: Ames Salmonella typhimurium, Strain/Indicator: TA1535, Metabolic Activation: Rat, Liver, S-9, Aroclor 1254, Method: Preincubation).
With `Cc1cccc2cc3ccc4ccccc4c3nc12`, the mutagenic call reads like this: (Test System: AMES SALMONELLA TYPHIMURIUM, Strain/Indicator: TA97A, Metabolic Activation: NONE, Method: PREINCUBATION) “inactive; negative”; under setting [1], “inactive; negative”; under setting [2], “inactive; negative”; (Test System: AMES SALMONELLA TYPHIMURIUM, Strain/Indicator: TA102, Metabolic Activation: NONE, Method: PREINCUBATION) “inactive; negative”.
Consider `CC(=O)OCc1cocc2c(C=O)ccc1-2`, for which the mutagenic call was “active; positive” under setting [3]; “active; positive” (Test System: AMES SALMONELLA TYPHIMURIUM, Strain/Indicator: TA98, Metabolic Activation: RAT, LIVER, S-9, AROCLOR 1254, Method: STANDARD PLATE); “active; positive” under setting [4]; “active; positive” (Test System: AMES SALMONELLA TYPHIMURIUM, Strain/Indicator: TA100, Metabolic Activation: RAT, LIVER, S-9, AROCLOR 1254, Method: STANDARD PLATE); “inactive; negative” (Test System: AMES SALMONELLA TYPHIMURIUM, Strain/Indicator: TA1535, Metabolic Activation: NONE, Method: STANDARD PLATE); “inactive; negative” (Test System: AMES SALMONELLA TYPHIMURIUM, Strain/Indicator: TA1535, Metabolic Activation: RAT, LIVER, S-9, AROCLOR 1254, Method: STANDARD PLATE). Moreover, the mutagenic call (Test System: AMES SALMONELLA TYPHIMURIUM, Strain/Indicator: TA1537, Metabolic Activation: NONE, Method: STANDARD PLATE) was “inactive; negative” and the mutagenic call (Test System: AMES SALMONELLA TYPHIMURIUM, Strain/Indicator: TA1537, Metabolic Activation: RAT, LIVER, S-9, AROCLOR 1254, Method: STANDARD PLATE) was “inactive; negative”.
On to `COc1c2ccoc2nc2c(OC)c(OCC3OC3(C)C)ccc12` (stereo not given), for which the mutagenic call is, setting by setting: (Test System: AMES SALMONELLA TYPHIMURIUM, Strain/Indicator: TA98, Metabolic Activation: RAT, LIVER, S-9, PHENOBARBITAL, Method: STANDARD PLATE) “inactive; negative”; (Test System: AMES SALMONELLA TYPHIMURIUM, Strain/Indicator: TA100, Metabolic Activation: RAT, LIVER, S-9, PHENOBARBITAL, Method: STANDARD PLATE) “inactive; negative”.
In the case of `Fc1ccnc2ccccc12`, the mutagenic call is “active; positive” (Test System: AMES SALMONELLA TYPHIMURIUM, Strain/Indicator: TA100, Metabolic Activation: RAT, LIVER, S-9, AROCLOR 1254, Method: PREINCUBATION) and “inactive; negative” (Test System: UDS RODENT HEPATOCYTES, Strain/Indicator: THY INCORP (NON-S-PHASE), Metabolic Activation: NONE, Method: AUTORADIOGRAPHY).
On to `Cc1ccc(NO)cc1C`, for which the mutagenic call is, setting by setting: under setting [2], “active; positive”; (Test System: AMES SALMONELLA TYPHIMURIUM, Strain/Indicator: TA100, Metabolic Activation: RAT, LIVER, S-9, PCB, Method: PREINCUBATION) “active; positive”.
Consider `c1ccc(COC[C@@H]2CO2)cc1`, for which the mutagenic call under setting [4] was “active; positive”.
As to `ClCc1cc2c3c(cccc3c1)-c1ccccc1-2`, the mutagenic call under setting [3] was “active; positive” and the mutagenic call under setting [4] was “active; positive”.
Regarding `CCCOC(=O)C=Cc1ccc([N+](=O)[O-])o1`, the mutagenic call under setting [1] was “active; positive”.

The values above are taken from PubChem BioAssay AID1259407 (Chemical Carcinogenesis Research Information System (CCRIS), 2018).
